In US7847058B2, “Method of modulating cell survival, differentiation and/or synaptic plasticity” (priority 2003, dated 2010):
“Also recorded” adds a separate entry of the source.

How the values were obtained:
[1] = tested on: NCAM-mediated cell aggregation; conditions: Soroka et al., 2002; cited from earlier work
[2] = tested on: NCAM-expressing PC12-E2 cells; test: Neurite outgrowth of PC12-E2 cells grown on a confluent monolayer of NCAM-140- or vector-transfected L929 fibroblasts; type: cell-based; conditions: co-culture 24 h; for NCAM-induced neurite outgrowth of PC12-E2 cells grown on NCAM-140-transfected (LBN) fibroblasts: Ig3 wt, Ig3mut1, Ig3mut2 at 500 μg ml^−1
Procedure: The NCAM-expressing pheochromocytoma PC12-E2 cell line (Wu and Bradshaw, 1995) was a gift from Dr. Klaus Seedorf, Hagedorn Research Institute, Denmark. The cells were grown in Dulbecco's Modified Eagle's Medium (DMEM) supplemented with 5% v/v fetal calf serum (FCS) and 10% v/v horse serum (HS), 100 U ml^−1 penicillin, 100 μg ml^−1 streptomycin (all from Gibco BRL) at 37° C. in a humidified atmosphere containing 5% CO2.
The fibroblastoid mouse cell line, L929 (European Cell Culture Collection), was stably transfected with the eukaryotic expression vector pHβ-Apr-1-neo (Gunning et al., 1987) containing a full-length cDNA encoding human 140 kDa NCAM-B or the vector alone. […] The cells were routinely grown at 37° C., 5% CO2 in DMEM supplemented with 10% v/v FCS, 100 U ml^−1 penicillin, and 100 μg ml^−1 streptomycin. For analysis of neurite outgrowth, PC12-E2 cells (8,000 cells per well) were seeded on top of a confluent monolayer of transfected fibroblastoid L929 cells in four-well LabTek Tissue Culture Chamber Slides (NUNC). The cells were grown for 24 h in DMEM supplemented with 1% v/v HS, before analysis.
(§1) Ig3 wt, Ig3mut1, and Ig3mut2 were tested at a concentration of 500 μg ml^−1.
To evaluate the length of processes of PC12-E2 cells, the co-cultures were fixed in 4% w/v paraformaldehyde for 25 min. After washing in PBS, cells were blocked with 10% v/v goat serum (DAKO) for 30 min and subsequently incubated for 1 h at room temperature with a mouse monoclonal anti-Thy-1 antibody (Caltag Laboratories) (1:100 in PBS containing 10% v/v goat serum). After washing, cells were incubated for 1 h at room temperature with Alexa-Fluor 568™ goat anti-mouse IgG (Molecular Probes) (1:1000 in PBS containing 10% goat serum). All washes were performed for 10 min in PBS, and repeated three times.
(§2) The total neurite length per cell was analyzed using the software ProcessLength (Rønn et al., 2000). Five independent experiments with the Ig3 module, its mutants, and the individual peptides were performed. In each experiment neurites from 200-300 cells were analyzed. In order to compare results of individual experiments and due to the inherently high variability of cell experiments, the data were normalized setting the difference between the average neurite length of PC12-E2 cells grown on NCAM-140-transfected and vector-transfected fibroblasts to 100%. Statistical evaluations were performed using a two-sided Student's t-test.

[3] = tested on: cerebellar granule neurons (CGN); test: Neurite outgrowth of CGN in co-culture with fibroblasts with (LBN) or without (LVN) NCAM expression; type: cell-based, rat; conditions: co-cultures of PC12-E2 or CGN cells with fibroblasts expressing NCAM; cell type not specified
[4] = tested on: cerebellar granule neurons (CGN); test: Neurite outgrowth of CGN grown as single neurons in primary culture; type: cell-based, rat; conditions: 24 h, different concentrations of the peptide in growth media
Procedure: (§3) Cerebellar granule neurons (CGN) were prepared from Wistar rat pups of postnatal day 3. Cerebellar tissue was dissected in modified Krebs-Ringer solution kept on ice, and treated as described for the hippocampal neurons above. All cell cultures were incubated at 37° C. in a humidified atmosphere containing 5% CO2. All animals were handled in accordance with the national guidelines for animal welfare. Primary cultures of CGN were plated at a density of 100,000 cells/cm^2 on poly-L-lysine coated 8-well permanox slides in Neurobasal-A medium (Gibco, BRL) supplemented with 2% (v/v) B27, 0.5% (v/v) glutamax, 100 U/ml penicillin, 100 μg/ml streptomycin and KCl, making the final concentration of KCl in the medium 40 mM. 24 hours after plating, cytosine-β-D-arabinofuranoside (Ara-C; Sigma-Aldrich) was added to a final concentration of 10 μM to avoid proliferation of glial cells, after which the neurons were allowed to differentiate for further six days at 37° C.
(§4) To evaluate the length of neurites of CGN, the neurons were fixed after 24 hours in culture with 4% (v/v) formaldehyde for 20 minutes and thereafter immunostained using primary rabbit antibodies against GAP-43 and Alexa Fluor secondary goat anti-rabbit antibodies. Images of at least 200 neurons for each group in each individual experiment were obtained systematically by using computer assisted fluorescence microscopy
as §2

[5] = tested on: cerebellar granule neurons (CGN); test: Neurite outgrowth of CGN in co-culture with fibroblasts with (LBN) or without (LVN) NCAM expression; type: cell-based, rat; conditions: for NCAM-dependent neurite outgrowth of CGN in co-cultures of CGN and LBN-cells: fibroblasts with NCAM expression (LBN); for NCAM-independent neurite outgrowth of CGN in both cultures: single-neuron primary culture 24 h and co-culture with fibroblasts
Procedure: as §3, §1, §4, §2

[6] = Dynamic light scattering (DLS) of recombinant proteins in solution; type: physicochemical; conditions: deglycosylated protein, 4 mg ml^−1, PBS pH 7.4, 18° C.
Procedure: Measurements were performed using a DynaPro-MS/X instrument (Protein Solutions) at 18° C. The deglycosylated preparations of Ig1-2-3 (4 mg ml^−1), Ig1-2-3mut (4 mg ml^−1) and Ig3 (10 mg ml^−1) in PBS pH 7.4 were used to determine the molecular weight of the recombinant proteins in solution.

## GRILARGEINFK (rat NCAM Ig2 fragment amino acid residues 172-182) [P2 peptide]
[1]
  effect on cell aggregation: inhibitory effect

## TLVADADGFPEP (H-TLVADADGFPEP-NH2) [P3-B, control peptide covering the B β-strand and B-C loop of the Ig3 module, reference compound]
[2]
  NCAM-induced neurite outgrowth of PC12-E2 cells grown on NCAM-140-transfected (LBN) fibroblasts: not active

## GEISVGESKFFL (H-GEISVGESKFFL-NH2) [P1-B, covers the B β-strand of Ig1, represents the Ig1-to-Ig2 contact]
[2]
  NCAM-induced neurite outgrowth of PC12-E2 cells grown on NCAM-140-transfected (LBN) fibroblasts: inhibitory effects comparable to the effect of Ig3 wt; also recorded: inhibited

## SIHLKVFAK (H-SIHLKVFAK-NH2) [P3-G, C-terminal part of the G β-strand of Ig3]
[2]
  NCAM-induced neurite outgrowth of PC12-E2 cells grown on NCAM-140-transfected (LBN) fibroblasts: inhibitory effects comparable to the effect of Ig3 wt; also recorded: inhibited
[3]
  NCAM-stimulated neurite outgrowth in co-cultures: did not affect
[4]
  neurite outgrowth (differentiation) of single CGN in primary culture: very capable stimulators

## DVRRGIKKTD (H-DVRRGIKKTD-NH2) [P2-CD, represents the Ig2-to-Ig3 contact, Ig2 module]
[3]
  NCAM-stimulated neurite outgrowth in co-cultures: did not affect
[4]
  neurite outgrowth (differentiation) of single CGN in primary culture: very capable stimulators

## QEFKEGEDAVIV (H-QEFKEGEDAVIV-NH2) [P2-A′B, represents the Ig2-to-Ig2 contact]
[5]
  NCAM-dependent neurite outgrowth of CGN in co-cultures of CGN and LBN-cells: inhibits; also recorded: capable modulating
  NCAM-independent neurite outgrowth of CGN in both cultures: does not affect
[4]
  neurite outgrowth (differentiation) of single CGN in primary culture: did not stimulate

## KHIFSDDSSELTIRNVDKNDE (H-KHIFSDDSSELTIRNVDKNDE-NH2) [P3-DE, covers D and E β-strands and E-F loop of the Ig3 module]
[2]
  NCAM-induced neurite outgrowth of PC12-E2 cells grown on NCAM-140-transfected (LBN) fibroblasts: inhibitory effects comparable to the effect of Ig3 wt; also recorded: inhibited

## QIRGIKKTD (H-QIRGIKKTD-NH2) [P2-EF, represents the Ig2-to-Ig3 contact, Ig2 module]
[3]
  NCAM-stimulated neurite outgrowth in co-cultures: did not affect
[4]
  neurite outgrowth (differentiation) of single CGN in primary culture: very capable stimulators

## AFSPNGEKLSPNQ (H-AFSPNGEKLSPNQ-NH2) [P1-CD, represents the Ig1-to-Ig3 contact]
[5]
  NCAM-dependent neurite outgrowth of CGN in co-cultures of CGN and LBN-cells: inhibits; also recorded: capable modulating
  NCAM-independent neurite outgrowth of CGN in both cultures: does not affect
[4]
  neurite outgrowth (differentiation) of single CGN in primary culture: did not stimulate

B1: Ig3: recombinant Ig3 module of rat NCAM, residues 191-289, produced in P. pastoris (protein)
chain: EAEAYGRILARGEINFKDIQVIVNVPPTVQARQSIVNATANLGQSVTLVCDADGFPEPTMSWTKDGEPIENEEEDDEKHIFSDDSSELTIRNVDKNDEAEYVCI
[2]
  NCAM-induced neurite outgrowth of PC12-E2 cells grown on NCAM-140-transfected (LBN) fibroblasts: clearly inhibits
[2]; listed as Ig3 wt
  NCAM-induced neurite outgrowth of PC12-E2 cells grown on NCAM-140-transfected (LBN) fibroblasts: inhibitory effect
[2]; NCAM-negative fibroblasts
  neurite outgrowth of PC12-E2 cells grown on vector-transfected (LVN) fibroblasts: does not affect

B2: Ig3mut1: Ig3 mutant with substitutions R198A, D249G, E287A (E253A) (protein)
chain: EAEAYGRILARGEINFKDIQVIVNVPPTVQAAQSIVNATANLGQSVTLVCDADGFPEPTMSWTKDGEPIENEEEDDEKHIFSGDSSALTIRNVDKNDEAEYVCI
[2]
  NCAM-induced neurite outgrowth of PC12-E2 cells grown on NCAM-140-transfected (LBN) fibroblasts: inactive

B3: Ig1-2-3: recombinant Ig1-2-3 fragment of rat NCAM, residues 1-289 (protein)
chain: RVLQVDIVPSQGEISVGESKFFLCQVAGDAKDKDISWFSPNGEKLSPNQQRISVVWNDDDSSTLTIYNANIDDAGIYKCVVTAEDGTQSEATVNVKIFQKLMFKNAPTPQEFKEGEDAVIVCDVVSSLPPTIIWKHKGRDVILKKDVRFIVLSNNYLQIRGIKKTDEGTYRCEGRILARGEINFKDIQVIVNVPPTVQARQSIVNATANLGQSVTLVCDADGFPEPTMSWTKDGEPIENEEEDDEKHIFSDDSSELTIRNVDKNDEAEYVCIAENKAGEQDASIHLKVFAK
modifications: rat NCAM fragment amino acid residues 20-308 and cloning artifacts
[6]
  molecular weight in solution by DLS (oligomeric state): ~78 kDa

B4: Ig1-2-3mut: Ig1-2-3 mutant containing the substitutions E11A, E16A, and K18A (protein)
chain: RVLQVDIVPSQGAISVGASAFFLCQVAGDAKDKDISWFSPNGEKLSPNQQRISVVWNDDDSSTLTIYNANIDDAGIYKCVVTAEDGTQSEATVNVKIFQKLMFKNAPTPQEFKEGEDAVIVCDVVSSLPPTIIWKHKGRDVILKKDVRFIVLSNNYLQIRGIKKTDEGTYRCEGRILARGEINFKDIQVIVNVPPTVQARQSIVNATANLGQSVTLVCDADGFPEPTMSWTKDGEPIENEEEDDEKHIFSDDSSELTIRNVDKNDEAEYVCIAENKAGEQDASIHLKVFAK
[6]
  molecular weight in solution by DLS (oligomeric state): ~34 kDa
